Assays:
Type in all cases: in vivo, mice
PACA2 tumor xenografts = assay: PACA2 tumor xenograft efficacy study (Example 106)
Protocol: Six-week old female athymic nude mice (NCR nu/nu; Charles River Laboratory, Wilmington, Mass.) were acclimated to the animal housing facility for at least 1 week before the study. Efficacy studies were performed in athymic mice bearing PACA2 tumor xenografts to determine the effect of compound on tumor growth. Tumor cells (1×10^7 PACA2 cells/animal) were inoculated subcutaneously on day 0. Tumor dimensions were measured by a digital microcaliper, and tumor volumes were calculated as length×width^2/2. […] Results are expressed as mean tumor volume±SE. To assess differences in tumor size between groups, a Mann-Whitney non-parametric t test was performed and significance was assessed for p values <0.05. Tumor size was evaluated periodically during treatment at the indicated days post-inoculation. Results are represented as the mean of tumor volume in mm^3±SE of several tumors (n=10) in function of the treatment period. […] (See FIG. 1A).

[1] = system: MDA-MB-231 tumor xenografts; assay: MDA-MB-231 tumor xenograft efficacy study
Protocol: Six weeks old female athymic nude mice (NCR nu/nu) received from Charles River Laboratory, acclimated to the animal housing facility for one week before initiation of the study. Mice were housed in sterile cages of 4 each with autoclaved bedding, provided with autoclaved food and water ad libitum. Efficacy studies were performed in athymic mice bearing MDA-MB-231 tumor xenografts to determine the effect of compound on tumor growth. Tumor cells (5×10^6 MDA-MB-231 cells/animal) were inoculated subcutaneously on day 0. Tumor dimensions were measured three times weekly by a digital microcaliper, and tumor volumes were calculated as length×width^2/2. When tumors reached a volume of ˜100 mm^3, mice were randomized into groups and treated 3× weekly (Monday-Wednesday-Friday, followed by a 2-day dosing holiday) intraperitoneally. With either vehicle control or 3 mg/kg, 6 mg/kg and 12 mg/kg compound formulated in DMA/PEG400/water (4:8:88). Results are expressed as mean tumor volume±SE. To assess differences in tumor size between groups, student's t test was performed and significance was assessed for p values <0.05. Tumor size was evaluated periodically during treatment at the indicated days post-inoculation. Results are represented as the mean of tumor volume in mm^3±SE of several tumors (n=8) in function of the treatment period.
The in vivo activity of N-(3-amino-propyl)-3-chloro-N—[(R)-1-(7-chloro-4-oxo-3-phenylamino-3,4-dihydro-quinazolin-2-yl)-but-3-ynyl]-2-fluoro-benzamide was tested using xenograft models using cell lines as reported in Table 4. The experiments were performed using the general procedures and dosages of Examples 106-108.

SK-OV-3 xenograft = assay: Xenograft model; conditions: SK-OV-3, Ovary; procedures and dosages of Examples 106-108
HT29 xenograft = assay: Xenograft model; conditions: HT29, Colon; procedures and dosages of Examples 106-108
A375 xenograft = assay: Xenograft model; conditions: A375, Skin; procedures and dosages of Examples 106-108

In the case of `C#CC[C@H](c1nc2cc(Cl)ccc2c(=O)n1Nc1ccccc1)N(CCCN)C(=O)c1cccc(Cl)c1F` [Compound 1, N-(3-Amino-propyl)-3-chloro-N—[(R)-1-(7-chloro-4-oxo-3-phenylamino-3,4-dihydro-quinazolin-2-yl)-but-3-ynyl]-2-fluoro-benzamide], the “tumor growth compared to the vehicle control group” value (PACA2 tumor xenografts; 6.25 or 12.5 mg/kg intraperitoneally 3x weekly for 4 weeks, tumors ~100 mm^3 at start, FIG. 1A) is reported as “Significant reductions in tumor growth”, the tolerability of doses (PACA2 tumor xenografts; 6.25 or 12.5 mg/kg intraperitoneally 3x weekly, PACA2 xenograft mice) is reported as “well-tolerated” and the tolerability of doses ([1]; 3 mg/kg, 6 mg/kg or 12 mg/kg intraperitoneally 3x weekly, MDA-MB-231 xenograft mice) is reported as “well-tolerated”. For the same compound, the “tumor growth compared to the vehicle control group” value ([1]; 3 mg/kg, 6 mg/kg or 12 mg/kg intraperitoneally 3x weekly, tumors ~100 mm^3 at start, FIG. 2) was “Significant reductions in tumor growth”, the “Xenograft Outcome (approximate percent growth inhibition)” value ([1]; MDA-MB-231, Breast, procedures and dosages of Examples 106-108) was ~80% and the “Xenograft Outcome (approximate percent growth inhibition)” value (SK-OV-3 xenograft) was ~50%. For the same compound, the “Xenograft Outcome (approximate percent growth inhibition)” value (HT29 xenograft) was ~30% and the “Xenograft Outcome (approximate percent growth inhibition)” value (A375 xenograft) was “small”.

From patent US20110217300A1, “Quinazolinone Compounds and Methods of Use Thereof” (priority 2007, published 2011)
